“And” between values parts separate entries of the source, which are not always exact repeats. Equal entries are not always repeated. Where two headings read alike, the source gives them in different places.
Assays:
[1] = system: Normal Kunming (KM) mice; test: multiple OGTT (mOGTT): hypoglycemic duration after a single administration; format: in vivo; conditions: single injection at the same dose (1.126 nmol), subcutaneous
In short: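 Normal Kunming mice given a single dose, then oral glucose challenges; tail-blood glucose read by meter at 0, 10, 20, 40, 60 and 120 min. Duration scored as hypoglycemic period until group mean glucose exceeded the NaCl control twice.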

[2] = system: Normal Kunming (KM) mice; test: single oral glucose tolerance test (sOGTT); format: in vivo; conditions: for glucose peak in single OGTT: after a single administration and oral glucose, tail blood at 0-120 min
Description: • 1. Methods: Normal Kunming (KM) mice (purchased from Guangdong Animal Center) were used for oral glucose tolerance test (OGTT) to obtain the hypoglycemic activity and durability of drug. […] The blood glucose meter and blood glucose test paper were from Bayer […]. The average blood glucose of each group was used as an evaluation standard: When the average blood glucose of experimental group was higher than that of the NaCl control group for two times, the measurement stopped and the hypoglycemic period compared to the blank control group was the effective duration. • 2. Results • 2.1 single OGTTs: after a single administration, the mice were orally administered glucose once and measured the blood glucose from the tail blood at 0, 10, 20, 40, 60 and 120 min. […] The duration of each monomer group was about 1⁄2-1⁄4 of the duration of its corresponding dimer group. […] Therefore, the 2G3 peptide was selected for treating type II diabetes (T2D) in vivo and subsequent experiments.

[3] = system: GLP-1R; test: GLP-1R Western blot analysis in T2D model; format: in vivo, C57B16/J mice; conditions: compared with the model control group
[4] = T2D model treatment: body weight and organ weights; format: in vivo, C57B16/J mice; conditions: 2G1 study, 35 days
Procedure: C57B16/J mice were placed in an SPF-level environment with a standard diet. All experimental operations were performed in accordance with the guidelines of the ethics and uses of experimental animals. […] The NaCl-PB group served as blank control and the model control group served as the T2D model control. They were injected with NaCl-PB solution. The T2D model group was fed with 60 kcal % high-fat diet (D12492, Changzhou SYSE Bio-tech. Co., Ltd., China) until the end of the experiment. Meanwhile the blank control group maintained standard diet. […] These groups were subjected to a 35-day treatment study on the basis of the high-fat diet. • 1. […] The monomeric peptides were dissolved into a saline solution (pH 6.5) for injection. • 2. […] The models were measured blood glucose at the tail and weight weighted every morning at 9 am. […] In the T2D treatment study, all T2D model mice were injected subcutaneously at the back hip in 100 μl per mouse within 30 min. The blood glucose of the experimental mice was measured every five days and the whole measurement was completed within 40 min. […] No. 8-9695-03-201-1, Novo Nordisk company, Switzerland) until the end of the 35-day experiment. • 3.

[5] = trial for 26 weeks; cited from earlier work
[6] = clinic trial for 24 weeks, once a day; cited from earlier work
[7] = speculated; cited from earlier work
[8] = in vivo; cited from earlier work
[9] = cited from earlier work
[10] = system: thyroid C-cell; conditions: rodents, dose-dependent and time-dependent; cited from earlier work
[11] = high dose 3.378 nmol/100 μL once a day
[12] = low dose 0.375 nmol/100 μL once a day
[13] = medium dose and Liraglutide group 1.126 nmol/100 μL once a day

Compound: 2G2 series 7: disulfide-linked homodimer of monomer SEQ ID NO: 7 (HAEGTFTSDVCSYLEGQAAXEFIAWLVRGRG; disulfide-linked homodimer; Sequence is synthesized; (20)..(20) Xaa is Xaa is 26Lys[N-e-(N-a-Palmitoyl-g-glutamyl)]; (31)..(31) C-terminal)
- Hypoglycemic duration (days) [1]: 5 (2G2 peptide) days
- hypoglycemic effect in single OGTT ([2]; with more time, no significant difference): stronger than that of monomeric G2 or G3
- GLP-1R expression (Western blot) [3]: significantly increased GLP-1R

Compound: CCCCCCCCCCCCCCCC(=O)N[C@@H](CCC(=O)NCCCC[C@H](NC(=O)[C@H](C)NC(=O)[C@H](C)NC(=O)[C@H](CCC(N)=O)NC(=O)CNC(=O)[C@H](CCC(=O)O)NC(=O)[C@H](CC(C)C)NC(=O)[C@H](Cc1ccc(O)cc1)NC(=O)[C@H](CO)NC(=O)[C@H](CO)NC(=O)[C@@H](NC(=O)[C@H](CC(=O)O)NC(=O)[C@H](CO)NC(=O)[C@@H](NC(=O)[C@H](Cc1ccccc1)NC(=O)[C@@H](NC(=O)CNC(=O)[C@H](CCC(=O)O)NC(=O)[C@H](C)NC(=O)[C@@H](N)Cc1c[nH]cn1)[C@@H](C)O)[C@@H](C)O)C(C)C)C(=O)N[C@@H](CCC(=O)O)C(=O)N[C@@H](Cc1ccccc1)C(=O)N[C@H](C(=O)N[C@@H](C)C(=O)N[C@@H](Cc1c[nH]c2ccccc12)C(=O)N[C@@H](CC(C)C)C(=O)N[C@H](C(=O)N[C@@H](CCCNC(=N)N)C(=O)NCC(=O)N[C@@H](CCCNC(=N)N)C(=O)NCC(=O)N[C@@H](CSSC[C@H](NC(=O)CNC(=O)[C@H](CCCNC(=N)N)NC(=O)CNC(=O)[C@H](CCCNC(=N)N)NC(=O)[C@@H](NC(=O)[C@H](CC(C)C)NC(=O)[C@H](Cc1c[nH]c2ccccc12)NC(=O)[C@H](C)NC(=O)[C@@H](NC(=O)[C@H](Cc1ccccc1)NC(=O)[C@H](CCC(=O)O)NC(=O)[C@H](CCCCNC(=O)CC[C@H](NC(=O)CCCCCCCCCCCCCCC)C(=O)O)NC(=O)[C@H](C)NC(=O)[C@H](C)NC(=O)[C@H](CCC(N)=O)NC(=O)CNC(=O)[C@H](CCC(=O)O)NC(=O)[C@H](CC(C)C)NC(=O)[C@H](Cc1ccc(O)cc1)NC(=O)[C@H](CO)NC(=O)[C@H](CO)NC(=O)[C@@H](NC(=O)[C@H](CC(=O)O)NC(=O)[C@H](CO)NC(=O)[C@@H](NC(=O)[C@H](Cc1ccccc1)NC(=O)[C@@H](NC(=O)CNC(=O)[C@H](CCC(=O)O)NC(=O)[C@H](C)NC(=O)[C@@H](N)Cc1c[nH]cn1)[C@@H](C)O)[C@@H](C)O)C(C)C)[C@@H](C)CC)C(C)C)C(=O)O)C(=O)O)C(C)C)[C@@H](C)CC)C(=O)O [2G1]
- Weight of organs, Heart [4, 11]: 0.121 ± 0.011a** g
- Weight of organs, Left kidney [4, 11]: 0.166 ± 0.040 g
- Weight of organs, Left testis [4, 11]: 0.086 ± 0.017 e* g
- Weight of organs, Liver [4, 11]: 1.293 ± 0.273 c* g
- Weight of organs, Lung [4, 11]: 0.144 ± 0.019 g
- Weight of organs, Pancreas [4, 11]: 0.145 ± 0.032 c* g
- Weight of organs, Right kidney [4, 11]: 0.175 ± 0.063 g
- Weight of organs, Right testis [4, 11]: 0.096 ± 0.011 g
- Weight of organs, Spleen [4, 11]: 0.095 ± 0.028 c* g
- Weight of organs, adipose tissue [4, 11]: 1.311 ± 0.629 c* g
- Weight of organs, Heart [4, 12]: 0.128 ± 0.023 g
- Weight of organs, Left kidney [4, 12]: 0.156 ± 0.021 g
- Weight of organs, Left testis [4, 12]: 0.094 ± 0.037 g
- Weight of organs, Liver [4, 12]: 1.290 ± 0.163 a*c** g
- Weight of organs, Lung [4, 12]: 0.146 ± 0.010 g
- Weight of organs, Pancreas [4, 12]: 0.129 ± 0.2a**c*** g
- Weight of organs, Right kidney [4, 12]: 0.147 ± 0.018 g
- Weight of organs, Right testis [4, 12]: 0.100 ± 0.021 b* g
- Weight of organs, Spleen [4, 12]: 0.107 ± 0.037 c* g
- Weight of organs, adipose tissue [4, 12]: 1.202 ± 0.406 c** g
- Weight of organs, Heart [4, 13]: 0.114 ± 0.010 a** g
- Weight of organs, Left kidney [4, 13]: 0.157 ± 0.030 g
- Weight of organs, Left testis [4, 13]: 0.100 ± 0.006 b** g
- Weight of organs, Liver [4, 13]: 1.211 ± 0.114 c** g
- Weight of organs, Lung [4, 13]: 0.139 ± 0.020 g
- Weight of organs, Pancreas [4, 13]: 0.155 ± 0.033 c*d* g
- Weight of organs, Right kidney [4, 13]: 0.139 ± 0.029 g
- Weight of organs, Right testis [4, 13]: 0.095 ± 0.011 g
- Weight of organs, Spleen [4, 13]: 0.101 ± 0.026 c* g
- Weight of organs, adipose tissue [4, 13]: 1.263 ± 0.276 c*** g

Compound: Albiglutide
- body weight reduction [5]: 0.6 kg

Compound: Dulaglutide
- body weight reduction [5]: 2.9 kg

Compound: His-Ala-Glu-Gly-Thr-Phe-Thr-Ser-Asp-Val-Cys-Ser-Tyr-Leu-Glu-Gly-Gln-Ala-Ala-Lys[N-ϵ-(N-α-Palmitoyl-L-γ-glutamyl)]-Glu-Phe-Ile-Ala-Trp-Leu-Val-Arg-Gly-Arg-Gly-OH (HAEGTFTSDVCSYLEGQAAXEFIAWLVRGRG; palmitoyl-γ-glutamyl on Lys; C-terminal acid; Sequence is synthesized; (20)..(20) Xaa is Xaa is 26Lys[N-e-(N-a-Palmitoyl-g-glutamyl)]; (31)..(31) C-terminal) [G2 series 7]
- glucose peak in single OGTT [2]: no blood glucose peak appeared

Compound: His-Ala-Glu-Gly-Thr-Phe-Thr-Ser-Asp-Val-Ser-Cys-Tyr-Leu-Glu-Gly-Gln-Ala-Ala-Lys[N-ϵ-(N-α-Palmitoyl-L-γ-glutamyl)]-Glu-Phe-Ile-Ala-Trp-Leu-Val-Arg-Gly-Arg-Gly-OH (HAEGTFTSDVSCYLEGQAAXEFIAWLVRGRG; palmitoyl-γ-glutamyl on Lys; C-terminal acid; Sequence is synthesized; (20)..(20) Xaa is 26Lys[N-e-(N-a-palmitoyl-L-g-glutamyl)]; (31)..(31) C-terminal) [G3 series 20]
- Hypoglycemic (day) ([1]; monomeric peptides): 4 (G3 peptide) day
- glucose peak in single OGTT [2]: no blood glucose peak appeared

Compound: Lixisenatide
- incidence of side reaction [6]: 2.5%
- symptomatic hypoglycemia rate [6]: 3.4%

Compound: Semaglutide
- half-life [7]: 165 to 184 h
- hypoglycemic activity reduction compared with Liraglutide [8]: 3 times
- injection-site discomfort and erythema ([9]; % of patients): 0.2%
- gastrointestinal adverse reactions ([9]; Semaglutide 0.5 mg group): 32.7%
- gastrointestinal adverse reactions ([9]; Semaglutide 1 mg group): 36.4%
- mean increase in amylase ([9]; human, in vivo): 13%
- mean increase in lipase ([9]; human, in vivo): 22%
- severe hypoglycemia ([9]; in combination with sulfonylurea, % of patients): 0.8-1.2%
- Cholelithiasis ([9]; two values printed 'respectively', groups not named): 1.5% and 0.4%
- thyroid C-cell tumor [10]: can cause thyroid C-cell tumor
